Data published in patent US9399649B2, “Compounds for treating spinal muscular atrophy” (PTC Therapeutics Inc., priority 2012, dated 2016).

How the values were obtained:
[1] = Body weight of neonatal Δ7 SMA mice; assay type: in vivo; details: neonatal SMA Δ7 homozygous knockout mice, IP QD PND 3 to PND 23, then orally BID from PND 24 until study end, FIG. 13
Experimental: The change in body weight of neonatal SMA mice is used to determine whether treatment with a test compound improves body weight.
SMA Δ7 homozygous knockout mice are dosed intraperitoneally (IP) with test compound or vehicle (100% DMSO) QD from PND 3 until the dose regimen is switched to an oral dose BID in 0.5% hydroxypropylmethyl cellulose (HPMC) with 0.1% Tween-80 at a dose 3.16-fold higher than the dose used for IP. Body weights of SMA Δ7 mice treated with test compound or vehicle and age matched heterozygous mice are recorded every day.

[2] = test system: full length and Δ7 SMN2 mRNA; assay: Endogenous SMN2 mRNA end-point semi-quantitative RT-PCR splicing assay in cultured cells; assay type: cell-based, human; details: Type 1 SMA patient fibroblasts (GM03813), increasing concentrations, 24 hr, FIG. 5
Experimental: The endpoint reverse transcription-PCR splicing assay is used to visualize and quantify the levels of the full length and Δ7 SMN2 mRNA in primary cells and cell lines containing the SMN2 gene treated with a test compound.
GM03813 SMA patient cells (5,000 cells/well) are seeded in 200 μL of cell culture medium (DMEM plus 10% FBS) in 96-well flat-bottom plates and the plate is immediately swirled to ensure proper dispersal of cells, forming an even monolayer of cells. Cells are allowed to attach for at least 4-6 hrs. Test compounds are serially diluted 3.16-fold in 100% DMSO to generate a 7-point concentration curve. A solution of test compound (1 μL, 200× in DMSO) is added to each test well and 1 μL DMSO is added to each control well. The plate is incubated for 24 hrs in a cell culture incubator (37° C., 5% CO2, 100% relative humidity). The cells are then lysed in Cells-To-Ct lysis buffer and the lysate is stored at 80° C.
SMN FL and Δ7 mRNA are identified using the following primers in Table 6. These primers hybridize to a nucleotide sequence in exon 6 (SMN Forward C, SEQ ID NO. 11) (nucleotide 43 to nucleotide 63) and exon 8 (SMN Reverse C, SEQ ID NO. 12) (nucleotide 51 to nucleotide 73) common to human SMN1 and SMN2 mRNA. Since the SMA patient cells used in Example 4 contain only the SMN2 gene, RT-PCR can visualize and quantify only SMN2 full-length and SMN2 Δ7 mRNA.
(§1) To synthesize cDNA, 5 μL of lysate, 4 μL of 5× iScript reaction mix, 1 μL of reverse transcriptase, and 10 μL of water are combined and incubated 5 min at 25° C. followed by 30 min at 42° C., followed by 5 min at 85° C. The cDNA solution is stored at −20° C.
(§2) To perform endpoint PCR, 5 μL of cDNA, 0.2 μL of 100 μM forward primer, 0.2 μL of 100 μM reverse primer, and 22.5 μL of polymerase super mix are combined in a 96 well semiskirted PCR plate. PCR is carried out at the following temperatures for the indicated time: Step 1: 94° C. (2 min), Step 2: 94° C. (30 sec), Step 3: 55° C. (30 sec), Step 4: 68° C. (1 min), then repeat Steps 2 to 4 for a total of 33 cycles, then hold at 4° C.
10 μL of each PCR sample is electrophoretically separated on a 2% agarose E-gel for 14 minutes stained with double-stranded DNA (dsDNA) staining reagents (e.g., ethidium bromide) and visualized using a gel imager.

[3] = test system: human SMN1 minigene full length and Δ7 mRNA; assay: Human SMN1 minigene mRNA end-point semi-quantitative RT-PCR splicing assay in cultured cells; assay type: cell-based; details: HEK293H cells transfected with SMN1-A minigene, increasing concentrations, 7 hours, FIG. 17
Excerpt: The RT-PCR assay is used to visualize and quantify the levels of the human SMN1 minigene full length and Δ7 mRNA in primary cells and cell lines expressing the human SMN1 minigene construct treated with a test compound.
Using the procedure for the preparation of the SMN2 minigene construct described in Biological Example 1, the SMN1 version of the minigene is generated by changing the sixth nucleotide of exon 7 (a thymine residue) of the SMN2-A minigene construct to cytosine using site directed mutagenesis. Thus, similar to the SMN2-A minigene construct, the SMN1 minigene construct has a single adenine residue inserted after nucleic residue 48 of exon 7. The SMN1 minigene construct is referred to as SMN1-A.
HEK293H cells (10,000 cells/well/199 μL) were transfected, using FuGENE-6 reagent, in a 96-well plate with 15 ng of the SMN1-A minigene reporter plasmid per well. Cells were incubated for 24 hours following transfection. Test compounds were serially diluted 3.16-fold in 100% DMSO to generate a 7-point concentration curve. A solution of test compound (1 μL, 200× in DMSO) was added to each test well. 1 μL DMSO was added to each control well. The plate was incubated for 7 hours in a cell culture incubator (37° C., 5% CO2, 100% relative humidity). The cells were then lysed in Cells-To-Ct lysis buffer and the lysates were stored at 80° C.
Two SMN spliced mRNA are generated from the SMN1 minigene. The term “SMN1 minigene FL” refers to the first spliced product containing exon 7, corresponding to full length SMN1 mRNA. The term “SMN1 minigene A7” refers to the second product lacking exon 7.
SMN minigene FL and Δ7 mRNA are amplified using the primers in Table 11. Primer SMN Forward C (SEQ ID NO. 11) hybridizes to a nucleotide sequence in exon 6 (nucleotide 43 to nucleotide 63), primer SMN Reverse A (SEQ ID NO. 2) hybridizes to a nucleotide sequence in the coding sequence of Firefly luciferase. The combination of these two oligonucleotides detects only SMN1 or SMN2 minigenes (RT-PCR) and will not detect endogenous SMN1 or SMN2 genes. Since the SMA patient cells used in Example 16 were transfected with only the human SMN1 minigene, RT-PCR can visualize and quantify only SMN1 minigene full-length and SMN1 minigene Δ7 mRNA.
as §1
as §2, with “(30 sec), Step 3: 55° C. (30 sec), Step 4: 68° C. (1 min), then repeat Steps 2 to 4 for a total of 33 cycles, then hold at 4° C.” left out

[4] = test system: SMA Δ7 homozygous knockout mice; assay: Righting reflex in neonatal Δ7 SMA mice; assay type: in vivo; details: IP QD from PND 3, measured PND 10, 14 and 18, FIG. 14
Experimental: The functional change in righting reflex of neonatal SMA mice is used to determine whether treatment with a test compound improves righting reflex.
SMA Δ7 homozygous knockout mice are dosed intraperitoneally (IP) with test compound or vehicle (100% DMSO) QD from PND 3 until the dose regimen is switched to an oral dose BID in 0.5% hydroxypropylmethyl cellulose (HPMC) with 0.1% Tween-80 at a dose 3.16-fold higher than the dose used for IP. The righting reflex time is measured as the time taken by a mouse to flip over onto its feet after being laid on its back. Righting reflex is measured five times for each mouse (allowing a maximal time of 30 sec for each try) with 5 minutes between each measurement. The righting reflex time for SMA Δ7 homozygous knockout mice treated with test compound or vehicle and age-matched heterozygous mice is measured on PND 10, 14 and 18 and plotted.

Cc1cn2cc(-c3cc4ccc(N5CCN(C)CC5)cc4c(=O)o3)nc2c(C)n1 [Cpd 65, 3-(6,8-dimethylimidazo[1,2-a]pyrazin-2-yl)-7-(4-methylpiperazin-1-yl)-1H-isochromen-1-one]
body weight [1]: improved compared to vehicle treated mice
SMN2 FL mRNA (gel band) [2]: progressively more SMN2 FL mRNA
SMN2 Δ7 mRNA (gel band) [2]: less SMN2 Δ7 mRNA
SMN1 minigene FL mRNA (gel band) [3]: progressively more SMN1 minigene FL mRNA
SMN1 minigene Δ7 mRNA (gel band) [3]: less SMN1 minigene Δ7 mRNA
righting reflex [4]: improved compared to vehicle treated mice

Cc1cn2cc(-c3cc4ccc(N5CCN6CCC[C@H]6C5)cc4c(=O)o3)nc2c(C)n1 [Cpd 69, 3-(6,8-dimethylimidazo[1,2-a]pyrazin-2-yl)-7-[(8aS)-hexahydropyrrolo[1,2-a]pyrazin-2(1H)-yl]-1H-isochromen-1-one]
body weight [1]: improved compared to vehicle treated mice
SMN2 FL mRNA (gel band) [2]: progressively more SMN2 FL mRNA
SMN2 Δ7 mRNA (gel band) [2]: less SMN2 Δ7 mRNA
SMN1 minigene FL mRNA (gel band) [3]: progressively more SMN1 minigene FL mRNA
SMN1 minigene Δ7 mRNA (gel band) [3]: less SMN1 minigene Δ7 mRNA
righting reflex [4]: improved compared to vehicle treated mice
